Experimental data as given in patent publication US20230114728A1 (Venatorx Pharmaceuticals, Inc., priority 2019, published 2023).
In brackets after ≈: the same amount, converted by molar mass.

Key:
Format in all cases: cell-based
[1] = tested on: N. gonorrhoeae FA1090; assay: Liquid broth MIC in Fastidious broth; conditions: Neisseria gonorrhoeae; N. gonorrhoeae strain FA1090; Fastidious broth; read-out: Minimum Inhibitory Concentration, N. gonorrhoeae FA1090
In short: (§1)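 Colonies were swabbed from chocolate agar after 24 h growth and standardised by optical density at 600 nm. Compounds were serially diluted twofold in Fastidious broth, and bacteria added to give 5×10^5 CFU/mL. After about 24 h at 36 °C in 5% CO2, the lowest concentration allowing under 10% growth was taken as MIC.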

[2] = tested on: N. gonorrhoeae WHO L; assay: Liquid broth MIC in Fastidious broth; conditions: Neisseria gonorrhoeae; N. gonorrhoeae strain WHO L; Fastidious broth; read-out: Minimum Inhibitory Concentration, N. gonorrhoeae WHO L
In short: as §1

[3] = tested on: N. gonorrhoeae WHO K; assay: Liquid broth MIC in Fastidious broth; conditions: Neisseria gonorrhoeae, read-out: Minimum Inhibitory Concentration, N. gonorrhoeae WHO K
In short: (§2)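 Broth microdilution against gonococcal strains expressing mosaic PBP2, starting inoculum 5×10^5 CFU/mL in Fastidious broth. Incubation runs ~24 h at 36 °C under 5% CO2, with MIC scored visually at <10% of full growth.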

[4] = tested on: N. gonorrhoeae WHO Q; assay: Liquid broth MIC in Fastidious broth; conditions: Neisseria gonorrhoeae, read-out: Minimum Inhibitory Concentration, N. gonorrhoeae WHO Q
In short: as §2

[5] = tested on: N. gonorrhoeae ATCC 49226; assay: Liquid broth MIC in Fastidious broth; conditions: Neisseria gonorrhoeae, ATCC49226; N. gonorrhoeae strain ATCC 49226; Fastidious broth; read-out: Minimum Inhibitory Concentration, N. gonorrhoeae ATCC 49226
In short: as §1

[6] = tested on: N. gonorrhoeae H041; assay: Liquid broth MIC in Fastidious broth; conditions: Neisseria gonorrhoeae, H041, read-out: Minimum Inhibitory Concentration, N. gonorrhoeae H041
In short: as §2

[7] = tested on: N. gonorrhoeae WHO G; assay: Liquid broth MIC in Fastidious broth; conditions: Neisseria gonorrhoeae; N. gonorrhoeae strain WHO G; Fastidious broth; read-out: Minimum Inhibitory Concentration, N. gonorrhoeae WHO G
In short: as §1

[8] = tested on: N. gonorrhoeae WHO Z; assay: Liquid broth MIC in Fastidious broth; conditions: Neisseria gonorrhoeae, read-out: Minimum Inhibitory Concentration, N. gonorrhoeae WHO Z
In short: as §2

[9] = tested on: E. coli ATCC 25922; assay: Broth microdilution MIC in CAMHB; conditions: Escherichia coli, ATCC25922; E. coli ATCC 25922; MHB; read-out: Minimum Inhibitory Concentration, E. coli 25922
In short: (§3)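 Hyper-permeable or efflux-deficient strains serve to probe outer-membrane penetration. Growth inhibition is scored visually after 16-20 h at 37° C in CAMHB, starting from 2-8×10^5 CFU/mL.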

[10] = tested on: E. coli D22; assay: Broth microdilution MIC in CAMHB; conditions: Escherichia coli; E. coli D22 (hyper-permeable); MHB; read-out: Minimum Inhibitory Concentration, E. coli D22
In short: as §3

[11] = tested on: P. aeruginosa ATCC 35151; assay: Broth microdilution MIC in CAMHB; conditions: Pseudomonas aeruginosa, ATCC35151; MHB; hyper-permeable strain; read-out: Minimum Inhibitory Concentration, P. aeruginosa ATCC 35151
In short: as §3

[12] = tested on: K. pneumoniae SI-117 producing VIM-1; assay: Broth microdilution MIC in CAMHB; conditions: Klebsiella pneumoniae, read-out: Minimum Inhibitory Concentration, K. pneumoniae SI-117
In short: as §3

[13] = tested on: E. coli AG100A; assay: Broth microdilution MIC in CAMHB; conditions: Escherichia coli, read-out: Minimum Inhibitory Concentration, E. coli AG100A
In short: as §3

| Compound | MIC [1] | MIC [2] | MIC [3] | MIC [4] | MIC [5] | MIC [6] | MIC [7] | MIC [8] | MIC [9] | MIC [10] | MIC [11] | MIC [12] | MIC [13] |
| --- | --- | --- | --- | --- | --- | --- | --- | --- | --- | --- | --- | --- | --- |
| CCN1CCN(C(=O)NC(C(=O)N[C@H]2Cc3cccc(C(=O)O)c3OB2O)c2c(F)cc(C(=O)O)cc2F)C(=O)C1=O (stereo partly drawn) [Example 157, (3R)-3-(2-(4-carboxy-2,6-difluorophenyl)-2-(4-ethyl-2,3-dioxopiperazine-1-carboxamido)acetamido)-2-hydroxy-3,4-dihydro-2H-benzo[e][1,2]oxaborinine-8-carboxylic acid] | < 0.125 µg/mL | 4 to 8 µg/mL (≈ 6.8 to 13.6 µM) | 4 to 8 µg/mL (≈ 6.8 to 13.6 µM) | 4 to 8 µg/mL (≈ 6.8 to 13.6 µM) | 4 to 8 µg/mL (≈ 6.8 to 13.6 µM) | 16 to 32 µg/mL (≈ 27.2 to 54.4 µM) | 1 to 2 µg/mL (≈ 1.7 to 3.4 µM) | 4 to 8 µg/mL (≈ 6.8 to 13.6 µM) | 32 to 64 µg/mL (≈ 54.4 to 109 µM) | 2 to 4 µg/mL (≈ 3.4 to 6.8 µM) | 0.5 to 1 µg/mL (≈ 0.85 to 1.7 µM) | > 128 µg/mL | 8 to 16 µg/mL (≈ 13.6 to 27.2 µM) |
| NCCN1CCN(C(=O)NC(C(=O)N[C@H]2Cc3cccc(C(=O)O)c3OB2O)c2cc(F)c(O)c(Cl)c2)C(=O)C1=O (stereo partly drawn) [Example 163, (3R)-3-(2-(4-(2-aminoethyl)-2,3-dioxopiperazine-1-carboxamido)-2-(3-chloro-5-fluoro-4-hydroxyphenyl)acetamido)-2-hydroxy-3,4-dihydro-2H-benzo[e][1,2]oxaborinine-8-carboxylic acid] | 1 to 2 µg/mL (≈ 1.69 to 3.38 µM) | > 64 µg/mL | > 64 µg/mL | > 64 µg/mL | > 64 µg/mL | > 64 µg/mL | 16 to 32 µg/mL (≈ 27 to 54.1 µM) | > 64 µg/mL | 32 to 64 µg/mL (≈ 54.1 to 108 µM) | 8 to 16 µg/mL (≈ 13.5 to 27 µM) | < 0.25 µg/mL | > 128 µg/mL | 2 to 4 µg/mL (≈ 3.38 to 6.76 µM) |
| CCN1CCN(C(=O)N[C@H](C(=O)N[C@H]2Cc3cccc(C(=O)O)c3OB2O)c2ccc(C(=O)O)cc2O)C(=O)C1=O (single isomer, unassigned) [Example 143] | 1 to 2 µg/mL (≈ 1.76 to 3.52 µM) | > 64 µg/mL | > 64 µg/mL | > 64 µg/mL | 16 to 32 µg/mL (≈ 28.2 to 56.3 µM) | > 64 µg/mL | 4 to 8 µg/mL (≈ 7.04 to 14.1 µM) | 16 to 32 µg/mL (≈ 28.2 to 56.3 µM) | > 128 µg/mL | 8 to 16 µg/mL (≈ 14.1 to 28.2 µM) | 2 to 4 µg/mL (≈ 3.52 to 7.04 µM) | > 128 µg/mL | 32 to 64 µg/mL (≈ 56.3 to 113 µM) |
| CCN1CCN(C(=O)NC(C(=O)N[C@H]2Cc3cccc(C(=O)O)c3OB2O)c2cc(F)c(O)c(F)c2)C(=O)C1=O (stereo partly drawn) [Example 160, (3R)-3-(2-(3,5-difluoro-4-hydroxyphenyl)-2-(4-ethyl-2,3-dioxopiperazine-1-carboxamido)acetamido)-2-hydroxy-3,4-dihydro-2H-benzo[e][1,2]oxaborinine-8-carboxylic acid] | < 0.125 µg/mL | 16 to 32 µg/mL (≈ 28.6 to 57.1 µM) | 16 to 32 µg/mL (≈ 28.6 to 57.1 µM) | 4 to 8 µg/mL (≈ 7.14 to 14.3 µM) | 4 to 8 µg/mL (≈ 7.14 to 14.3 µM) | 16 to 32 µg/mL (≈ 28.6 to 57.1 µM) | 1 to 2 µg/mL (≈ 1.78 to 3.57 µM) | 4 to 8 µg/mL (≈ 7.14 to 14.3 µM) | 32 to 64 µg/mL (≈ 57.1 to 114 µM) | 2 to 4 µg/mL (≈ 3.57 to 7.14 µM) | < 0.25 µg/mL | > 128 µg/mL | 2 to 4 µg/mL (≈ 3.57 to 7.14 µM) |
| CCN1CCN(C(=O)NC(C(=O)N[C@H]2Cc3cccc(C(=O)O)c3OB2O)c2c(F)cc(NS(N)(=O)=O)cc2F)C(=O)C1=O (stereo partly drawn) [Example 176, (3R)-3-(2-(2,6-difluoro-4-(sulfamoylamino)phenyl)-2-(4-ethyl-2,3-dioxopiperazine-1-carboxamido)acetamido)-2-hydroxy-3,4-dihydro-2H-benzo[e][1,2]oxaborinine-8-carboxylic acid] | 0.25 to 0.5 µg/mL (≈ 0.392 to 0.783 µM) | > 64 µg/mL | > 64 µg/mL | > 64 µg/mL | 4 to 8 µg/mL (≈ 6.27 to 12.5 µM) | > 64 µg/mL | 4 to 8 µg/mL (≈ 6.27 to 12.5 µM) | 16 to 32 µg/mL (≈ 25.1 to 50.1 µM) | 32 to 64 µg/mL (≈ 50.1 to 100 µM) | 2 to 4 µg/mL (≈ 3.13 to 6.27 µM) | 2 to 4 µg/mL (≈ 3.13 to 6.27 µM) | > 128 µg/mL | 2 to 4 µg/mL (≈ 3.13 to 6.27 µM) |
| NCCN1CCN(C(=O)N[C@H](C(=O)N[C@H]2Cc3cccc(C(=O)O)c3OB2O)c2ccc(O)c(F)c2F)C(=O)C1=O (single isomer, unassigned) [Example 169] | 4 to 8 µg/mL (≈ 6.95 to 13.9 µM) | > 64 µg/mL | > 64 µg/mL | > 64 µg/mL | > 64 µg/mL | > 64 µg/mL | > 64 µg/mL | > 64 µg/mL | 8 to 16 µg/mL (≈ 13.9 to 27.8 µM) | 32 to 64 µg/mL (≈ 55.6 to 111 µM) | 2 to 4 µg/mL (≈ 3.48 to 6.95 µM) | > 128 µg/mL | 32 to 64 µg/mL (≈ 55.6 to 111 µM) |
